Measurements from publication PMC8119466, “A screen of FDA-approved drugs identifies inhibitors of protein tyrosine phosphatase 4A3 (PTP4A3 or PRL-3)” (Scientific Reports, 2021).
Structures can show the parent of a compound that is named as a salt. Where two headings read alike, the source gives them in different places.

Assays:
Type in all cases: biochemical
recombinant PRL-3 = target: T1, recombinant PRL-3 (Homo sapiens, UniProt O75365); assay: In vitro phosphatase assay (DiFMUP hydrolysis), PRL-3; note: test concentration or dose not given here
T1 construct: 6xHis (N, cleaved yes); made in house; host or cells: E. coli One Shot BL21 Star

recombinant PRL-1 = target: T2, recombinant PRL-1 (Homo sapiens, UniProt Q93096); assay: In vitro phosphatase assay (DiFMUP hydrolysis), PRL-1; note: test concentration or dose not given here
T2 construct: 6xHis (N, cleaved yes); made in house; host or cells: E. coli One Shot BL21 Star
T2 sequence (Q93096 1-173): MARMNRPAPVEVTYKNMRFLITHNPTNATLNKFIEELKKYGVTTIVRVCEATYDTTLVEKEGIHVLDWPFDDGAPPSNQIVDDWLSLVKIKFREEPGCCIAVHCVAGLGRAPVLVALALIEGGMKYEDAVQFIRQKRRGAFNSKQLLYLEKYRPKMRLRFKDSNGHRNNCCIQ

recombinant PRL-2 = target: T3, recombinant PRL-2 (Homo sapiens, UniProt Q12974); assay: In vitro phosphatase assay (DiFMUP hydrolysis), PRL-2;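 note: PRL-2 activity read as DiFMUP hydrolysis after 20 min at room temperature with drug, enzyme first pre-reduced at 4 °C for 20 min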
T3 construct: 6xHis (N, cleaved yes); made in house; host or cells: E. coli One Shot BL21 Star
T3 sequence (Q12974 1-167): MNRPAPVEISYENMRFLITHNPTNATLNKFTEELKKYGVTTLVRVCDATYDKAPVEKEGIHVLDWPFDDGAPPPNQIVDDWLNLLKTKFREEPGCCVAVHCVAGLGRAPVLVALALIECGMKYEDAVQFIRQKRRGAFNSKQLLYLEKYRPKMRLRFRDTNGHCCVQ

[1] = FDA-approved drug screen, compared to DMSO
[2] = FDA-approved drug screen, activity compared to DMSO

T1 sequence (O75365 whole entry): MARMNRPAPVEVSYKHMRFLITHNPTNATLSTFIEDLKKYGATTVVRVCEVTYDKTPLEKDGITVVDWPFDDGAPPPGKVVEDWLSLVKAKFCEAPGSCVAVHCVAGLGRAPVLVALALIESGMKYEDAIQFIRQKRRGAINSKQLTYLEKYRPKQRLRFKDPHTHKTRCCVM

Compound	% Phosphatase Activity (compared to DMSO) PRL-3 (recombinant PRL-3; [1])	% Phosphatase Activity (compared to DMSO) PRL-1 (recombinant PRL-1; [1])	% Phosphatase Activity (compared to DMSO) PRL-2 (recombinant PRL-2; [1])	further results
COc1ccc([C@H]2CNC(=O)C2)cc1OC1CCCC1 [S- (+)-Rolipram]	87%	107%	110%	
O=C1NC(=O)C(c2ccccc2)(c2ccccc2)N1 [Phenytoin sodium]	68%	100%	100%	
CN(CCOc1ccc(CC2SC(=O)NC2=O)cc1)c1ccccn1 (stereo not drawn) [Rosiglitazone maleate]	87%	104%	113%	
CN(C)[C@@H](CCOc1cccc2ccccc12)c1ccccc1 [Dapoxetine HCl]	111%	99%	109%	
CC(O)(P(=O)(O)O)P(=O)(O)O [Etidronate]	91%	102%	100%	
CN(C)CCc1c[nH]c2ccc(Cn3cncn3)cc12 [Rizatriptan Benzoate]	90%	98%	103%	
CN(C)CCCN1c2ccccc2CCc2ccc(Cl)cc21 [Clomipramine HCl]	96%	108%	114%	
CCCN[C@H]1CCc2nc(N)sc2C1 [Pramipexole dihydrochloride monohydrate]				% Phosphatase Activity (compared to DMSO) PRL-3 (recombinant PRL-3): 90%; % Phosphatase Activity (compared to DMSO) PRL-1 (recombinant PRL-1): 87%; % Phosphatase Activity (compared to DMSO) PRL-2 (recombinant PRL-2): 98%
CC(C)(C)NCC(O)c1ccc(O)c(CO)c1.CC(C)(C)NCC(O)c1ccc(O)c(CO)c1.O=S(=O)(O)O (stereo not drawn) [Salbutamol Sulfate]	88%	94%	90%	
Cc1ccc(C(=O)c2ccc(CC(=O)O)n2C)cc1 [Tolmetin Sodium]				% Phosphatase Activity (compared to DMSO) PRL-3 (recombinant PRL-3; [2]): 111%; % Phosphatase Activity (compared to DMSO) PRL-1 (recombinant PRL-1; [2]): 95%; % Phosphatase Activity (compared to DMSO) PRL-2 (recombinant PRL-2; [2]): 79%
CC(C)Nc1cc(-c2c[nH]c(C(=O)N[C@H](CO)c3cccc(Cl)c3)c2)c(Cl)cn1 [Ulixertinib (BVD-523, VRT752271)]				% Phosphatase Activity (compared to DMSO) PRL-3 (recombinant PRL-3; [2]): 105%; % Phosphatase Activity (compared to DMSO) PRL-1 (recombinant PRL-1; [2]): 99%; % Phosphatase Activity (compared to DMSO) PRL-2 (recombinant PRL-2; [2]): 90%
Bivalirudin Trifluoroacetate	88%	86%	81%	
C=C1/C(=C\C=C2/CCC[C@]3(C)[C@@H]([C@H](C)/C=C/[C@H](C)C(C)C)CC[C@@H]23)C[C@@H](O)C[C@@H]1O [Doxercalciferol]	71%	105%	99%	
Nc1nc2[nH]cc(CCc3ccc(C(=O)N[C@@H](CCC(=O)O)C(=O)O)cc3)c2c(=O)[nH]1 [Pemetrexed]	98%	92%	86%	
COc1ccc(C[C@@H]2c3cc(OC)c(OC)cc3CC[N@+]2(C)CCC(=O)OCCCCCOC(=O)CC[N@@+]2(C)CCc3cc(OC)c(OC)cc3[C@H]2Cc2ccc(OC)c(OC)c2)cc1OC [Cisatracurium Besylate]	79%	99%	103%	
CC[C@H](C)[C@H]1O[C@]2(CC[C@@H]1C)C[C@@H]1C[C@@H](C/C=C(\C)[C@@H](O[C@H]3C[C@H](OC)[C@@H](O[C@H]4C[C@H](OC)[C@@H](O)[C@H](C)O4)[C@H](C)O3)[C@@H](C)/C=C/C=C3\CO[C@@H]4[C@H](O)C(C)=C[C@@H](C(=O)O1)[C@]34O)O2 [Ivermectin]	69%	91%	102%	
